Test results from patent publication US8349827B2, “Substituted dipyrido-pyrimido-diazepine and benzo-pyrido-pyrimido compounds” (ArQule, Inc., priority 2009, dated 2013).

How the values were obtained:
ABL = ABL (Homo sapiens, UniProt P00519); test: ABL Kinase Activity Assay (Elisa), ABL; format: biochemical; settings: ATP 100 μM, read-out: Abl Enzymetic assay (Elisa) % inhibition
Description: (§1) ABL Kinase Activity Assay
(§2) The disclosed compounds were assayed for their ability to inhibit the activity of ABL kinase. Nunc Maxisorb plates were coated with streptavidin by overnight incubation with 100 μL per well of 1 μg/ml streptavidin in DPBS. Prior to the experiment, the plates were washed with TBST (3×200 μL) and blocked for at least 3 hours by adding 150 μL of 5% BSA/TBST. The plates were washed with TBST (3×200 μL/well) and left dry immediately before the capture step.
(§3) The disclosed test compounds and controls (Gleevec) were prepared using the following assay buffer@10× desired final concentration (50 mM Tris pH 7.0, 0.02 mg/ml BSA, 10 mM MgCl2, 0.1 mM Na3VO4, 1 mM EGTA, 0.01% NP-40, 1 mM DTT in 10% glycerol/water). In a reaction plate, 5 μl test article (or control) and 30 μl ABL or ABL T315I (0.089 nM final concentration, in the above buffer) were added rapidly. The plate was incubated for 20 minutes. To the reaction plate was added ATP (100 μM final concentration) and AblTide (128 nM final concentration) in a volume of 15 μl. The plate was incubated at room temperature for one hour.
(§4) From the reaction plate, 40 μl was transferred to the streptavidin coated plate. The capture plate was incubated at room temperature for 30 minutes, then washed 3× with TBST. To the capture plate was added 100 μL/well of cell signaling anti-phospho tyrosine at a dilution of 1:3000 in 2% BSA/TBST. The plate was incubated for two hours at room temperature then washed 3× with TBST. To the capture plate was added 100 μL/well of alkaline phosphatase tagged goat anti mouse antibody at a dilution of 1:4000 in 2% BSA/TBST. The plate was incubated for one hour at room temperature then washed 3× with TBST.
(§5) The fluorescent readout was initiated by the addition of 100 μl/well of Attophos reagent (6 mg/10 mL). The reading was done on the Perkin Elmer Envision system.

KATO III = test: MTS assay, KATO III cells; format: cell-based; settings: Homo sapiens, 72 hours
Description: (§6) Cells were maintained at 37° C., 5% CO2 in DMEM media supplemented with 1% fetal bovine serum, penicillin/streptomycin and fungizone (Invitrogen). Cells were seeded into 96-well tissue culture plates at 3000 per well and cultured at 37° C. for 18 hours. Test compounds were dissolved and diluted to 300× in DMSO then diluted 1:40 in DMEM. Cells were incubated with test compounds for 72 hours followed by incubation with tetrazolium compound (3-(4,5-dimethylthiazol-2-yl)-5-(3-carboxymethoxyphenyl)-2-(4-sulfophenyl)-2H-tetrazolium, inner salt; MTS) and the electron coupling reagent, phenazine methosulfate (PMS) for 4 hours. […] The ability of compounds to inhibit cell growth in this assay is correlated with the reduction of dehydrogenase enzyme activity found in metabolically active cells. The measurement of the absorbance of the formazan was assessed using an ENVISION™ (Perkin Elmer) microplate reader at 492 nm. The calculated IC50 value is the concentration of the test compound that causes a 50% decrease in the absorbance.

ABL T315I = ABL T315I (Homo sapiens, UniProt P00519, T315I); test: ABL Kinase Activity Assay (Elisa), ABL T315I; format: biochemical; settings: ATP 100 μM, read-out: Abl(T315I) Enzymetic assay (Elisa) % inhibition
Description: as §1, §2, §3, §4, §5

NCI-H1299 = test: MTS assay, NCI-H1299 cells; format: cell-based; settings: Homo sapiens, 72 hours
Description: as §6

PC-3 = test: MTS assay, PC-3 cells; format: cell-based; settings: Homo sapiens, 72 hours
Description: as §6

DLD-1 = test: MTS assay, DLD-1 cells; format: cell-based; settings: Homo sapiens, 72 hours
Description: as §6

PACA-2 = test: MTS assay, PACA-2 cells; format: cell-based; settings: 72 hours
Description: as §6

MDA-MB-231 = test: MTS assay, MDA-MB-231 cells; format: cell-based; settings: Homo sapiens, 72 hours
Description: as §6

Row | inhibition at 10 µM (ABL) [%] | inhibition at 10 µM (ABL T315I) [%] | Compound | inhibition at 10 µM (KATO III) [%] | inhibition at 10 µM (NCI-H1299) [%] | inhibition at 10 µM (PC-3) [%] | inhibition at 10 µM (DLD-1) [%] | inhibition at 10 µM (PACA-2) [%] | inhibition at 10 µM (MDA-MB-231) [%]
1 | 80 to 100 | 80 to 100 | c1cnc2c(c1)-c1nc(NC3CCCCC3)ncc1-c1ccncc1N2 [Example 35, N-cyclohexyl-9H-dipyrido[2,3-b:4′,3′-f]pyrimido[4,5-d]azepin-2-amine] | 50 to 79 | 50 to 79 | < 50 | < 50 | < 50 | < 50
2 | 50 to 79 | < 50 | c1cnc2c(c1)-c1nc(NCC3CCNCC3)ncc1-c1ccncc1N2 [Example 60, N-(piperidin-4-ylmethyl)-9H-dipyrido[2,3-b:4′,3′-f]pyrimido[4,5-d]azepin-2-amine] | 80 to 100 | 50 to 79 | 80 to 100 | 50 to 79 | 80 to 100 | 80 to 100
3 | 80 to 100 | 80 to 100 | c1ccc(-c2ccc(CNc3ncc4c(n3)-c3cccnc3Nc3cnccc3-4)cc2)cc1 [Example 34, N-(biphenyl-4-ylmethyl)-9H-dipyrido[2,3-b:4′,3′-f]pyrimido[4,5-d]azepin-2-amine] | 80 to 100 | 80 to 100 | 80 to 100 | 80 to 100 | 80 to 100 | 80 to 100
4 | 80 to 100 | 80 to 100 | O[C@H]1CC[C@H](Nc2ncc3c(n2)-c2cccnc2Nc2cnccc2-3)CC1 [Example 27, trans-4-(9H-dipyrido[2,3-b:4′,3′-f]pyrimido[4,5-d]azepin-2-ylamino)cyclohexanol] | 80 to 100 | < 50 | 50 to 79 | < 50 | < 50 | 50 to 79
5 | 50 to 79 | 80 to 100 | Fc1cccc(CCNc2ncc3c(n2)-c2cccnc2Nc2cnccc2-3)c1 [Example 25, N-[2-(3-fluorophenyl)ethyl]-9H-dipyrido[2,3-b:4′,3′-f]pyrimido[4,5-d]azepin-2-amine] | 80 to 100 | 80 to 100 | 80 to 100 | 80 to 100 | 80 to 100 | 80 to 100
6 | < 50 | < 50 | OCCc1ccc(Nc2ncc3c(n2)-c2cccnc2Nc2ccccc2-3)cc1 [Example 63, 2-[4-(9H-pyrido[2,3-b]pyrimido[4,5-d][1]benzazepin-2-ylamino)phenyl]ethanol] | 50 to 79 | < 50 | 50 to 79 | 50 to 79 | 80 to 100 | < 50
7 | < 50 | < 50 | FC(F)(F)c1ccc(CNc2ncc3c(n2)-c2cccnc2Nc2cnccc2-3)cc1 [Example 21, N-[4-(trifluoromethyl)benzyl]-9H-dipyrido[2,3-b:4′,3′-f]pyrimido[4,5-d]azepin-2-amine] | 80 to 100 | 80 to 100 | 80 to 100 | 80 to 100 | 80 to 100 | 80 to 100
8 | 50 to 79 | 80 to 100 | Clc1ccccc1CNc1ncc2c(n1)-c1cccnc1Nc1cnccc1-2 [Example 8, N-(2-chlorobenzyl)-9H-dipyrido[2,3-b:4′,3′-f]pyrimido[4,5-d]azepin-2-amine] | 80 to 100 | 80 to 100 | 80 to 100 | 80 to 100 | 80 to 100 | 80 to 100
9 | 80 to 100 | 80 to 100 | CCCC(C)Nc1ncc2c(n1)-c1cccnc1Nc1cnccc1-2 (stereo not shown) [Example 5, N-(1-methylbutyl)-9H-dipyrido[2,3-b:4′,3′-f]pyrimido[4,5-d]azepin-2-amine] | 50 to 79 | < 50 | < 50 | < 50 | < 50 | < 50
10 | 80 to 100 | 80 to 100 | Fc1cccc(CNc2ncc3c(n2)-c2cccnc2Nc2cnccc2-3)c1 [Example 39, N-(3-fluorobenzyl)-9H-dipyrido[2,3-b:4′,3′-f]pyrimido[4,5-d]azepin-2-amine] | 80 to 100 | 80 to 100 | 80 to 100 | 80 to 100 | 80 to 100 | 80 to 100
11 | 80 to 100 | 80 to 100 | COc1ccc(CCNc2ncc3c(n2)-c2cccnc2Nc2cnccc2-3)cc1 [Example 42, N-[2-(4-methoxyphenyl)ethyl]-9H-dipyrido[2,3-b:4′,3′-f]pyrimido[4,5-d]azepin-2-amine] | 80 to 100 | < 50 | < 50 | 50 to 79 | < 50 | < 50
12 | 50 to 79 | 80 to 100 | FC(F)(F)c1ccccc1CNc1ncc2c(n1)-c1cccnc1Nc1cnccc1-2 [Example 3, N-[2-(trifluoromethyl)benzyl]-9H-dipyrido[2,3-b:4′,3′-f]pyrimido[4,5-d]azepin-2-amine] | < 50 | 50 to 79 | < 50 | < 50 | < 50 | < 50
13 | 80 to 100 | 80 to 100 | c1ccc(OCCNc2ncc3c(n2)-c2cccnc2Nc2cnccc2-3)cc1 [Example 26, N-(2-phenoxyethyl)-9H-dipyrido[2,3-b:4′,3′-f]pyrimido[4,5-d]azepin-2-amine] | 50 to 79 | < 50 | < 50 | < 50 | < 50 | < 50
14 | 80 to 100 | 80 to 100 | Fc1ccc(CNc2ncc3c(n2)-c2cccnc2Nc2cnccc2-3)cc1 [Example 11, N-(4-fluorobenzyl)-9H-dipyrido[2,3-b:4′,3′-f]pyrimido[4,5-d]azepin-2-amine] | 80 to 100 | 80 to 100 | 80 to 100 | 80 to 100 | 80 to 100 | 80 to 100
15 | 80 to 100 | 80 to 100 | Fc1ccc(CNc2ncc3c(n2)-c2cccnc2Nc2cnccc2-3)cc1F [Example 33, N-(3,4-difluorobenzyl)-9H-dipyrido[2,3-b:4′,3′-f]pyrimido[4,5-d]azepin-2-amine] | 80 to 100 | 80 to 100 | 80 to 100 | 80 to 100 | 80 to 100 | 80 to 100
16 | 50 to 79 | 80 to 100 | Clc1ccc(CNc2ncc3c(n2)-c2cccnc2Nc2cnccc2-3)cc1 [Example 13, N-(4-chlorobenzyl)-9H-dipyrido[2,3-b:4′,3′-f]pyrimido[4,5-d]azepin-2-amine] | 50 to 79 | 50 to 79 | < 50 | 50 to 79 | < 50 | < 50
17 | 80 to 100 | 80 to 100 | CCCCNc1ncc2c(n1)-c1cccnc1Nc1cnccc1-2 [Example 7, N-butyl-9H-dipyrido[2,3-b:4′,3′-f]pyrimido[4,5-d]azepin-2-amine] | 50 to 79 | < 50 | < 50 | < 50 | < 50 | 50 to 79
